Literature values, collected in article PMC2766265 (Tetrahedron, 2008).

| SMILES | agonist activity at the κ-opioid receptor (κ-opioid receptor) | binding to any of the opioid-receptor subtypes (opioid-receptor subtypes) |
| --- | --- | --- |
| COC(=O)[C@@H]1C[C@H](OC(C)=O)C(=O)[C@H]2[C@@]1(C)CC[C@H]1C(=O)O[C@H](c3ccoc3)C[C@]21C [Compound 1, Salvinorin A] | potent and selective agonist | – |
| C[C@]12C[C@H](c3ccoc3)OC(=O)[C@H]1CC[C@@]13COC(=O)[C@@H]1C=CC[C@H]23 [Compound 2, salviarin] | – | none of these diterpenes showed significant binding |
| CC(=O)OC1C=CC2C(=O)OCC23CCC2C(=O)OC(c4ccoc4)C(OC(C)=O)C2(C)C13 (stereo not drawn) [Compound 3, splendidin] | – | none of these diterpenes showed significant binding |
